The source of these data is PMC6631481, “De Novo Design and In Vitro Testing of Antimicrobial Peptides against Gram-Negative Bacteria” (Pharmaceuticals, 2019).

No end group written: not given here.

What all share (format): cell-based
The test system of assay [1] is Escherichia coli ATCC 25922. How it is done:
The MICs of the designed cationic peptides against Escherichia coli ATCC 25,922 strains were determined by the broth microdilution method, as described by Hancock et al.. All MIC evaluations were performed using Luria Bertani (LB) medium. Briefly, a range of each peptide concentrations (100 µg/mL, 50 µg/mL, 25 µg/mL, 12.5 µg/mL, 6.25 µg/mL, 3.125 µg/mL) was prepared by serial dilution in NaCl-depleted LB medium and added to an equal volume (250 µl) of exponentially grown bacterial culture, so that final bacterial suspension contained 5 × 10^5 CFU/mL. The samples were incubated in 2 mL polypropylene microtubes at 37 °C overnight at 300 rpm. The MIC was defined as the concentration at which no microbial growth was detected spectrophotometrically, via readings of optical density (OD) at 600 nm (Biotek ELX800 microplate reader). Growth medium containing only bacterial cells was used as a negative control. Each MIC test was carried out in two replicates and repeated three times.

In another assay the test system is A. baumannii Josh 230. Put plainly: microbe, parasite or virus in culture. The settings on record: Josh 230. The source says:
(§1) The following strains were used: P. aeruginosa (ATCC 27,853 and resistant strains: J4228 (R: Meropenem), BB2013-100 (FQR)); A. baumannii (Josh 28 and resistant strain Josh 230 (OXA-48); E. cloacae (resistant strains: BB2012-181(R: Meropenem), BB2013-32 (FQR)); E. aerogenes (resistant strain St. L P63 (NDM-1), E. asburiae/cloacae (resistant strain St. L P23 (NDM-1), K. pneumonia (J3702 and resistant strains: BB2009-209 (KPC-2), Oschner KP-1), Escherichia coli (BW25113 (7636) and resistant strains: JW55034 (11430) (Tol neg), BB2013-30 (R:carbapenem), ARLG-1012 (NDM)). Susceptibility testing was performed using non-cation adjusted MHB broth and polypropylene plates. Testing was also done in the presence and absence of acetic acid and BSA.

Another assay has as its system A. baumannii Josh 28. Put plainly: microbe, parasite or virus in culture. The settings on record: Josh 28.
Text: as §1

In another assay the test system is E. aerogenes St. L P63. Put plainly: microbe, parasite or virus in culture. The note with it: St. L P63.
Text: as §1

The next assay deals with E. cloacae BB2012-181. Put plainly: microbe, parasite or virus in culture. The note with it: BB2012-181.
Text: as §1

A further assay concerns E. cloacae BB2013-32. Put plainly: microbe, parasite or virus in culture. The settings on record: BB2013-32.
Text: as §1

Another assay relates to E. coli ARLG-1012. Put plainly: microbe, parasite or virus in culture. The note with it: ARLG-1012.
Text: as §1

A further assay deals with E. coli BB2013-30. Put plainly: microbe, parasite or virus in culture. The settings on record: BB2013-30.
Text: as §1

A further assay concerns E. coli BW25113 (7636). Put plainly: microbe, parasite or virus in culture. The note with it: BW25113.
Text: as §1

The next assay has as its system E. coli JW55034 (11430). Put plainly: microbe, parasite or virus in culture. The note with it: phenotype Tol neg, non-cation adjusted MHB broth, polypropylene plates, meropenem by standard CLSI method.
Text: as §1

The subject of the next assay is K. pneumoniae BB2009-209. Put plainly: microbe, parasite or virus in culture. The note with it: BB2009-209.
Text: as §1

Another assay deals with K. pneumoniae J3702. Put plainly: microbe, parasite or virus in culture. The settings on record: J3702.
Text: as §1

For assay [2], the system named is K. pneumoniae Oschner KP-1. Put plainly: microbe, parasite or virus in culture. The settings on record: Oschner KP-1.
Text: as §1

For the next assay, the system named is P. aeruginosa ATCC 27853. Put plainly: microbe, parasite or virus in culture. The note with it: ATCC 27853.
Text: as §1

Another assay has as its system P. aeruginosa BB2013-100. Put plainly: microbe, parasite or virus in culture. The settings on record: BB2013-100.
Text: as §1

A further assay has as its system P. aeruginosa J4228. Put plainly: microbe, parasite or virus in culture. The settings on record: J4228.
Text: as §1

Assay [3] deals with E. asburiae/cloacae St. L P23. Put plainly: organism not typed.
Text: as §1

For GWAKLITKAIKKI-NH2 [SP3], the “MIC At NaCl” value in assay [1] was in the range of 25 to 50 µg/mL. For the same substance, the “MIC Without NaCl” value in assay [1] fell in the range of 12.5 to 25 µg/mL. Further, the MIC is listed as 16 µg/mL in the assay with A. baumannii Josh 230; 4 µg/mL against A. baumannii Josh 28; 16 µg/mL against E. aerogenes St. L P63; 16 µg/mL with E. cloacae BB2012-181; 16 µg/mL in the assay on E. cloacae BB2013-32; 4 µg/mL in the assay on E. coli ARLG-1012. Besides, the MIC in the assay with E. coli BB2013-30 was 8 µg/mL; in the assay with E. coli BW25113 (7636), 4 µg/mL; in the assay on E. coli JW55034 (11430), 4 µg/mL; in the assay on K. pneumoniae BB2009-209 it was more than 32 µg/mL; in the assay with K. pneumoniae J3702, 16 µg/mL; in [2], more than 32 µg/mL. The MIC in the assay on P. aeruginosa ATCC 27853 is listed as 8 µg/mL; with P. aeruginosa BB2013-100, 32 µg/mL; in the assay with P. aeruginosa J4228, 16 µg/mL; in [3] it was 32 µg/mL.
